Laboratory results from US10155765B2, “Carboxamide inhibitors of IRAK4 activity” (MERCK SHARP & DOHME CORP., priority 2015, dated 2018).
Where a name gives a salt, the structure may show the parent alone.

What follows are compounds tested against IRAK4 (Homo sapiens (Human), UniProt Q9NWZ3) (assay: IRAK4 Kinase Assay (IMAP fluorescence polarization)). Conditions: GST tagged IRAK4, 100 μM ATP, 30 minutes at 25° C., IMAP FP.
Assay type: biochemical
From the text: Other assays are known in the literature and could be readily performed by those of skill in the art.
The reaction is initiated by the addition of ATP.

IRAK4, sequence (Q9NWZ3 whole entry): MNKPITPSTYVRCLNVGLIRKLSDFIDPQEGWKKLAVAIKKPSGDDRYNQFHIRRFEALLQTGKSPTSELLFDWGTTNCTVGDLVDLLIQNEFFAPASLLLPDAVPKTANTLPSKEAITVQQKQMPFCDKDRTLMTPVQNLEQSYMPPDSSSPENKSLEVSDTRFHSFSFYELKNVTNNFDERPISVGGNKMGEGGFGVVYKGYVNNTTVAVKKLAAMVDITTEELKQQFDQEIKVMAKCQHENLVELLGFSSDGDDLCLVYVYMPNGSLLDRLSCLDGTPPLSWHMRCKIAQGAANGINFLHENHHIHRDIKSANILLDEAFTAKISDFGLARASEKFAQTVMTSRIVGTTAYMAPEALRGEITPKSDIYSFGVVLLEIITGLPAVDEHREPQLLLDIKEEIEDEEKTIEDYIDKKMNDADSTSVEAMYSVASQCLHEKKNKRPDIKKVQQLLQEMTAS

Structure (SMILES)	IC50 [nM]
Cn1cc(NC(=O)c2cnn3ccc(N[C@H]4CCS(=O)(=O)C[C@H]4N)nc23)c(C(N)=O)n1 (relative stereo) [Example 4, 5-{[cis-3-amino-1,1-dioxidotetrahydro-2H-thiopyran-4-yl]amino}-N-(3-carbamoyl-1-methyl-1H-pyrazol-4-yl)pyrazolo[1,5-a]pyrimidine-3-carboxamide trifluoroacetate]	5
NC(=O)c1nn(-c2cccnc2)cc1NC(=O)c1cnn2ccc(N[C@H]3CCCC[C@H]3N)nc12 (relative stereo) [Example 6, 5-{[cis-2-aminocyclohexyl]amino}-N-(3-carbamoyl-1-pyridin-3-yl-1H-pyrazol-4-yl)pyrazolo[1,5-a]pyrimidine-3-carboxamide]	0.8
CN1CCCC(n2cc(NC(=O)c3cnn4ccc(N[C@H]5CCCC[C@H]5N)nc34)c(C(N)=O)n2)C1 (relative stereo) [Example 10, 5-{[cis-2-aminocyclohexyl]amino}-N-[3-carbamoyl-1-(1-methylpiperidin-3-yl)-1H-pyrazol-4-yl]pyrazolo[1,5-a]pyrimidine-3-carboxamide trifluoroacetate]	25
CN(C)C(=O)c1nn(C)cc1NC(=O)c1cnn2ccc(N[C@H]3CCCC[C@H]3N)nc12 (relative stereo) [Example 17, 5-{[cis-2-aminocyclohexyl]amino}-N-[3-(dimethylcarbamoyl)-1-methyl-1H-pyrazol-4-yl]pyrazolo[1,5-a]pyrimidine-3-carboxamide trifluoroacetate]	150
CS(=O)(=O)N1CCC(n2cc(NC(=O)c3cnn4ccc(N[C@H]5CCCC[C@H]5N)nc34)c(C(N)=O)n2)CC1 (relative stereo) [Example 18, 5-{[cis-2-Aminocyclohexyl]amino}-N-{3-carbamoyl-1-[1-(methylsulfonyl)piperidin-4-yl]-1H-pyrazol-4-yl}pyrazolo[1,5-a]pyrimidine-3-carboxamide]	2
CN1CCC(n2cc(NC(=O)c3cnn4ccc(N[C@H]5CCCC[C@H]5N)nc34)c(C(N)=O)n2)CC1 (relative stereo) [Example 19, 5-{[cis-2-Aminocyclohexyl]amino}-N-[3-carbamoyl-1-(1-methylpiperidin-4-yl)-1H-pyrazol-4-yl]pyrazolo[1,5-a]pyrimidine-3-carboxamide]	2
CS(=O)(=O)N1CCCC(n2cc(NC(=O)c3cnn4ccc(N[C@H]5CCCC[C@H]5N)nc34)c(C(N)=O)n2)C1 (relative stereo) [Example 20, 5-{[cis-2-aminocyclohexyl]amino}-N-{3-carbamoyl-1-[1-(methylsulfonyl)piperidin-3-yl]-1H-pyrazol-4-yl}pyrazolo[1,5-a]pyrimidine-3-carboxamide trifluoroacetate]	4
Cn1cc(NC(=O)c2cnn3ccc(N[C@H]4COCC[C@H]4N)nc23)c(C(N)=O)n1 [Example 1, 5-(((3R,4R)-4-Aminotetrahydro-2H-pyran-3-yl)amino)-N-(3-carbamoyl-1-methyl-1H-pyrazol-4-yl)pyrazolo[1,5-a]pyrimidine-3-carboxamide]	31
Cn1cc(NC(=O)c2cnn3ccc(N[C@@H]4CCOC[C@@H]4N)nc23)c(C(N)=O)n1 [Example 2, 5-{[(3R,4R)-3-aminotetrahydro-2H-pyran-4-yl]amino}-N-(3-carbamoyl-1-methyl-1H-pyrazol-4-yl)pyrazolo[1,5-a]pyrimidine-3-carboxamide trifluoroacetate]	0.6
Cn1cc(NC(=O)c2cnn3ccc(NC4CCNC4)nc23)c(C(N)=O)n1 (centres unmarked) [Example 14, N-(3-carbamoyl-1-methyl-1H-pyrazol-4-yl)-5-(pyrrolidin-3-ylamino)pyrazolo[1,5-a]pyrimidine-3-carboxamide hydrochloride]	120
Cn1cc(NC(=O)c2cnn3ccc(NC4CCCNC4)nc23)c(C(N)=O)n1 (centres unmarked) [Example 15, N-(3-carbamoyl-1-methyl-1H-pyrazol-4-yl)-5-(piperidin-3-ylamino)pyrazolo[1,5-a]pyrimidine-3-carboxamide hydrochloride]	33
CCn1cc(NC(=O)c2cnn3ccc(N[C@@H]4CCCC[C@@H]4N)nc23)c(C(N)=O)n1 [Example 21, 5-{[(1R,2S)-2-Aminocyclohexyl]amino}-N-(3-carbamoyl-1-ethyl-1H-pyrazol-4-yl)pyrazolo[1,5-a]pyrimidine-3-carboxamide]	0.6
Cn1cc(NC(=O)c2cnn3ccc(NC4CCCCC4O)nc23)c(C(N)=O)n1 (centres unmarked) [Example 27, N-(3-carbamoyl-1-methyl-1H-pyrazol-4-yl)-5-[(2-hydroxycyclohexyl)amino]pyrazolo[1,5-a]pyrimidine-3-carboxamide]	210
NC(=O)c1nn(-c2ccncc2)cc1NC(=O)c1cnn2ccc(N3CCNCC3)nc12 [Example 34, N-(3-carbamoyl-1-pyridin-4-yl-1H-pyrazol-4-yl)-5-piperazin-1-ylpyrazolo[1,5-a]pyrimidine-3-carboxamide trifluoroacetate]	25

Further compounds by falling IC50, results first:

IC50 [nM]	Structure (SMILES)
270	Cn1cc(NC(=O)c2cnn3ccc(NCC4CNC(=O)C4)nc23)c(C(N)=O)n1 (centres unmarked) [Example 29, N-(3-carbamoyl-1-methyl-1H-pyrazol-4-yl)-5-{[(5-oxopyrrolidin-3-yl)methyl]amino}pyrazolo[1,5-a]pyrimidine-3-carboxamide]
240	Cn1cc(NC(=O)c2cnn3ccc(N4CCOCC4)nc23)c(C(N)=O)n1 [Example 30, N-(3-carbamoyl-1-methyl-1H-pyrazol-4-yl)-5-morpholin-4-ylpyrazolo[1,5-a]pyrimidine-3-carboxamide hydrochloride]
180	Cn1cc(NC(=O)c2cnn3ccc(NC4CCCCC4)nc23)c(C(N)=O)n1 [Example 26, N-(3-carbamoyl-1-methyl-1H-pyrazol-4-yl)-5-(cyclohexylamino)pyrazolo[1,5-a]pyrimidine-3-carboxamide trifluoroacetate]
37	Cn1cc(NC(=O)c2cnn3ccc(N4CCNCC4)nc23)c(C(N)=O)n1 [Example 31, N-(3-carbamoyl-1-methyl-1H-pyrazol-4-yl)-5-piperazin-1-ylpyrazolo[1,5-a]pyrimidine-3-carboxamide hydrochloride]
32	Cn1cc(NC(=O)c2cnn3ccc(N[C@@H]4CCCC(F)(F)[C@@H]4N)nc23)c(C(N)=O)n1 [Example 3, 5-{[(1R,2R)-2-amino-3,3-difluorocyclohexyl]amino}-N-(3-carbamoyl-1-methyl-1H-pyrazol-4-yl)pyrazolo[1,5-a]pyrimidine-3-carboxamide trifluoroacetate]
18	CNC(=O)c1nn(C)cc1NC(=O)c1cnn2ccc(N[C@H]3CCCC[C@H]3N)nc12 (relative stereo) [Example 16, 5-{[cis-2-aminocyclohexyl]amino}-N-[1-methyl-3-(methylcarbamoyl)-1H-pyrazol-4-yl]pyrazolo[1,5-a]pyrimidine-3-carboxamide trifluoroacetate]
15	Cn1cc(NC(=O)c2cnn3ccc(N[C@H]4CS(=O)(=O)CC[C@H]4N)nc23)c(C(N)=O)n1 (relative stereo) [Example 5, 5-{[cis-4-amino-1,1-dioxidotetrahydro-2H-thiopyran-3-yl]amino}-N-(3-carbamoyl-1-methyl-1H-pyrazol-4-yl)pyrazolo[1,5-a]pyrimidine-3-carboxamide trifluoroacetate]
4	CNS(=O)(=O)c1ccc(-n2cc(NC(=O)c3cnn4ccc(N5CCNCC5)nc34)c(C(N)=O)n2)cc1 [Example 33, N-{3-Carbamoyl-1-[4-(methylsulfamoyl)phenyl]-1H-pyrazol-4-yl}-5-piperazin-1-ylpyrazolo[1,5-a]pyrimidine-3-carboxamide]
3	COCCn1cc(NC(=O)c2cnn3ccc(N[C@@H]4CCCC[C@@H]4N)nc23)c(C(N)=O)n1 [Example 24, 5-{[(1R,2S)-2-aminocyclohexyl]amino}-N-[3-carbamoyl-1-(2-methoxyethyl)-1H-pyrazol-4-yl]pyrazolo[1,5-a]pyrimidine-3-carboxamide]
3	NC(=O)Cn1cc(NC(=O)c2cnn3ccc(N[C@@H]4CCCC[C@@H]4N)nc23)c(C(N)=O)n1 [Example 32, 5-{[(1R,2S)-2-Aminocyclohexyl]amino}-N-[1-(2-amino-2-oxoethyl)-3-carbamoyl-1H-pyrazol-4-yl]pyrazolo[1,5-a]pyrimidine-3-carboxamide]
2	Cn1cc(NC(=O)c2cnn3ccc(NC4CCCCCC4N)nc23)c(C(N)=O)n1 (centres unmarked) [Example 13, 5-[(2-aminocycloheptyl)amino]-N-(3-carbamoyl-1-methyl-1H-pyrazol-4-yl)pyrazolo[1,5-a]pyrimidine-3-carboxamide]
2	CN1CCCC(Cn2cc(NC(=O)c3cnn4ccc(N[C@@H]5CCCC[C@@H]5N)nc34)c(C(N)=O)n2)C1 (stereo partly drawn) [Example 25, 5-{[(1R,2S)-2-aminocyclohexyl]amino}-N-{3-carbamoyl-1-[(1-methylpiperidin-3-yl)methyl]-1H-pyrazol-4-yl}pyrazolo[1,5-a]pyrimidine-3-carboxamide trifluoroacetate]
1	CC(C)n1cc(NC(=O)c2cnn3ccc(N[C@@H]4CCCC[C@@H]4N)nc23)c(C(N)=O)n1 [Example 22, 5-{[(1R,2S)-2-aminocyclohexyl]amino}-N-[3-carbamoyl-1-(1-methylethyl)-1H-pyrazol-4-yl]pyrazolo[1,5-a]pyrimidine-3-carboxamide trifluoroacetate]
1	NC(=O)c1nn(CCO)cc1NC(=O)c1cnn2ccc(N[C@@H]3CCCC[C@@H]3N)nc12 [Example 23, 5-{[(1R,2S)-2-aminocyclohexyl]amino}-N-[3-carbamoyl-1-(2-hydroxyethyl)-1H-pyrazol-4-yl]pyrazolo[1,5-a]pyrimidine-3-carboxamide trifluoroacetate]
0.7	NCCNc1ccn2ncc(C(=O)Nc3cn(-c4cccnc4)nc3C(N)=O)c2n1 [Example 11, 5-[(2-aminoethyl)amino]-N-(3-carbamoyl-1-pyridin-3-yl-1H-pyrazol-4-yl)pyrazolo[1,5-a]pyrimidine-3-carboxamide]
